Tests used:
[1] = tested on: Oryza sativa, (L.) Tebonnet; experiment: Rice tolerance to post-transplant applications under flooded paddy conditions (Example 187), ORYSAT (Rice, Tebonnet)
[2] = tested on: Sagittaria pygmaea, L.; experiment: Preemergence weed control under flooded paddy conditions, SAGPY (Arrowhead (Pygmaea)); type: in vivo; conditions: flooded paddy
[3] = tested on: Echinochloa oryzoides (Ard.) Fritsch.; experiment: Preemergence weed control under flooded paddy conditions, ECHORC (Watergrass (Calif.)); type: in vivo; conditions: flooded paddy
[4] = tested on: Cyperus iria; experiment: Preemergence weed control under flooded paddy conditions, CYPIR (Rice Flatsedge); type: in vivo; conditions: flooded paddy
[5] = tested on: Monochoria vaginalis, Presl.; experiment: Preemergence weed control under flooded paddy conditions, MOOVA (Monochoria); type: in vivo; conditions: flooded paddy
[6] = tested on: Cyperus serotinus, Rottb.; experiment: Preemergence weed control under flooded paddy conditions, CYPSE (Flatsedge); type: in vivo
[7] = Rate 0.0320 kg/ha, preemergence weeds, rated three to four weeks after treatment
[8] = Rate 0.0620 kg/ha, preemergence weeds, rated three to four weeks after treatment
[9] = Rate 0.1250 kg/ha, preemergence weeds, rated three to four weeks after treatment
[10] = Rate 0.2500 kg/ha, preemergence weeds, rated three to four weeks after treatment
[11] = Rate 0.0320 kg/ha, preemergence, rated 3-4 weeks after treatment
[12] = Rate 0.0620 kg/ha, preemergence, rated 3-4 weeks after treatment
[13] = Rate 0.1250 kg/ha, preemergence, rated 3-4 weeks after treatment
[14] = Rate 0.2500 kg/ha, preemergence, rated 3-4 weeks after treatment
[15] = Rate 0.5000 kg/ha, preemergence, rated 3-4 weeks after treatment
Also: meaning of each grade not given here.

CC(=O)c1nsc2ccc(-n3c(=O)cc(C(F)(F)F)n(C)c3=O)cc12 [Example 307, 2,4(1H,3H)-Pyrimidinedione, 3-(3-acetyl-1,2-benzisothiazol-5-yl)-1-methyl-6-(trifluoromethyl)-]
herbicidal effect rating ORYSAT ([1]; Rate 0.0320 kg/ha, rated three to four weeks after treatment): 5.0
herbicidal effect rating ORYSAT ([1]; Rate 0.0620 kg/ha, rated three to four weeks after treatment): 6.0
herbicidal effect rating ORYSAT ([1]; Rate 0.1250 kg/ha, rated three to four weeks after treatment): 8.5
herbicidal effect rating ORYSAT ([1]; Rate 0.2500 kg/ha, rated three to four weeks after treatment): 9.0
herbicidal effect rating, SAGPY [2, 7]: 0.0
herbicidal effect rating, SAGPY [2, 8]: 1.0
herbicidal effect rating, SAGPY [2, 9]: 6.5
herbicidal effect rating, SAGPY [2, 10]: 9.0
herbicidal effect rating, ECHORC [3, 7]: 6.0
herbicidal effect rating, ECHORC [3, 8]: 5.0
herbicidal effect rating, ECHORC [3, 9]: 8.5
herbicidal effect rating, ECHORC [3, 10]: 9.0
herbicidal effect rating, CYPIR [4, 7]: 6.5
herbicidal effect rating, CYPIR [4, 8]: 6.5
herbicidal effect rating, CYPIR [4, 9]: 6.5
herbicidal effect rating, CYPIR [4, 10]: 7.5
herbicidal effect rating, MOOVA [5, 7]: 6.0
herbicidal effect rating, MOOVA [5, 8]: 8.0
herbicidal effect rating, MOOVA [5, 9]: 9.0
herbicidal effect rating, MOOVA [5, 10]: 9.0
herbicidal effect rating, CYPSE [6, 7]: 0.0
herbicidal effect rating, CYPSE [6, 8]: 3.5
herbicidal effect rating, CYPSE [6, 9]: 7.0
herbicidal effect rating, CYPSE [6, 10]: 9.0

Cc1ccc(OCC(=O)c2ccc(OC(F)F)cc2)c(-c2nsc3ccc(-n4c(=O)cc(C(F)(F)F)n(C)c4=O)cc23)c1 [Example 543, 2,4(1H,3H)-Pyrimidinedione, 3-{3-{6-{[p-(difluoromethoxy)phenacyl]oxy}-m-tolyl}-1,2-benzisothiazol-5-yl}-1-methyl-6-(trifluoromethyl)-]
herbicidal effect rating ORYSAT ([1]; Rate 0.0320 kg/ha, rated 3-4 weeks after treatment): 0.0
herbicidal effect rating ORYSAT ([1]; Rate 0.0620 kg/ha, rated 3-4 weeks after treatment): 0.0
herbicidal effect rating ORYSAT ([1]; Rate 0.1250 kg/ha, rated 3-4 weeks after treatment): 1.0
herbicidal effect rating ORYSAT ([1]; Rate 0.2500 kg/ha, rated 3-4 weeks after treatment): 2.0
herbicidal effect rating ORYSAT ([1]; Rate 0.5000 kg/ha, rated 3-4 weeks after treatment): 2.0
herbicidal effect rating, SAGPY [2, 11]: 0.0
herbicidal effect rating, SAGPY [2, 12]: 0.0
herbicidal effect rating, SAGPY [2, 13]: 0.0
herbicidal effect rating, SAGPY [2, 14]: 0.0
herbicidal effect rating, SAGPY [2, 15]: 0.0
herbicidal effect rating, ECHORC [3, 11]: 2.1
herbicidal effect rating, ECHORC [3, 12]: 2.9
herbicidal effect rating, ECHORC [3, 13]: 4.0
herbicidal effect rating, ECHORC [3, 14]: 7.0
herbicidal effect rating, ECHORC [3, 15]: 9.0
herbicidal effect rating, CYPIR [4, 11]: 2.0
herbicidal effect rating, CYPIR [4, 12]: 6.0
herbicidal effect rating, CYPIR [4, 13]: 7.0
herbicidal effect rating, CYPIR [4, 14]: 8.0
herbicidal effect rating, CYPIR [4, 15]: 3.0
herbicidal effect rating, MOOVA [5, 11]: 9.0
herbicidal effect rating, MOOVA [5, 12]: 9.0
herbicidal effect rating, MOOVA [5, 13]: 9.0
herbicidal effect rating, MOOVA [5, 14]: 9.0
herbicidal effect rating, MOOVA [5, 15]: 9.0
herbicidal effect rating, CYPSE [6, 11]: 0.0
herbicidal effect rating, CYPSE [6, 12]: 0.0
herbicidal effect rating, CYPSE [6, 13]: 0.0
herbicidal effect rating, CYPSE [6, 14]: 0.0
herbicidal effect rating, CYPSE [6, 15]: 0.0
